Laboratory results reported in patent publication US20010055753A1, “Method to regulate CD40 signaling” (National Jewish Medical and Research Center, priority 1995, published 2001).

Experiments:
[1] = system: p42^erk2; assay: ERK kinase assay with EGFR662-681 peptide substrate, Ramos cells; format: cell-based, human; conditions: 100 ng/ml PMA for 20 min, control about 10,000 cpm
Method: Kinase activity was evaluated using EGFRF662-681 peptide as a substrate as described previously (Franklin et al., J. Immunol. 153:4890-4898, 1994). Following stimulation, 10^6 cells were lysed in 75 μl of lysis buffer (70 mM β-glycerophosphate, pH 7.2, […], 2 mM MgCl2, 1 mM EGTA, 0.5% Triton X-100, 5 μg/ml leupeptin, 2 μg/ml aprotinin and 1 mM DTT) and placed on ice for 15 min. Cell lysates were centrifuged at 14,000 rpm for 10 min and 20 μl of supernatant were removed and mixed with 20 μl of 2×kinase buffer (50 mM β-glycerophosphate, pH 7.2, […], 20 mM MgCl2, […], 1 mM EGTA, 400 μM EGFR662-681 peptide, 200 μM ATP and 0.225 mCi/ml[γ-^32P] ATP [ICN Biochemicals, Costa Mesa, Calif.]). After 15 min at 30° C., 10 μl of 250 mM EDTA was added, and 45 μl of the reaction mixture was spotted onto P-81 phosphocellulose paper (Whatman, Clifton, N.J.). The papers were washed four times (5 min each) in 400 ml of 75 mM phosphoric acid and then radioactivity bound to the filter paper was determined by liquid scintillation counting.

[2] = system: p42^erk2; assay: Immunoblot with anti-ERK2 antibody (mobility shift) in Ramos cells; format: cell-based, human; conditions: PMA 100 ng/ml or anti-IgM 10 μg/ml, anti-CD40 5 μg/ml, 0-60 min
Method: The human Burkitt's lymphoma cell line Ramos was obtained from the American Type Culture Collection (Rockville, Md.), and cells were maintained in RPMI-1640 supplemented with 50 units/ml penicillin-streptomycin, 2 mM glutamine, and 10% FCS. Exponentially growing cells were used in all experiments.
About 1×10^6 Ramos cells were separately treated with 10 μg/ml anti-IgM F(ab′)2 goat anti-human IgM antibody (obtained from Zymed, San Francisco, Calif.) or 5 μg/ml anti-CD40 antibody (G28-5; obtained from Dr. E. A. Clark, Washington University, Seattle, Wash.) for 0, 1, 5, 15, 30 or 60 min. Ramos cells were also treated with phorbol 12-myristate 13-acetate (PMA; obtained from Sigma, St Louis, Mo.). Immunoblot analysis was performed on each of the samples using monoclonal anti-ERK2 antibody in the following method. The treated cells were lysed in 100 μl of lysis buffer (25 mM Tris-HCl, pH 7.6, 50 mM NaCl, 0.5% Na deoxycholate, 2% NP-40, 0.2% SDS, 1 mM PMSF, 50 μg/ml aprotinin, 50 μM leupeptin). Lysates were centrifuged for 10 min at 14,000 rpm in an Eppendorf microcentrifuge, 90 μl of supernatants were mixed with 30 μl of 4×Laemmli sample buffer. Samples were boiled for 5 min. Twenty μl of prepared samples were electrophoresed through a 12% SDS-PAGE gel, and proteins were transferred to nitrocellulose membranes. […]

[3] = system: p38 MAP kinase; assay: p38 immunoprecipitation kinase assay with ATF-2 (1-110), neutrophils; format: cell-based; conditions: 100 ng/ml LPS, varying time intervals
Method: Neutrophils isolated by the plasma percoll method as previously described (Haslett, C., Am. J. Pathol. 119, 101-110; 1985) were resuspended at about 25×10^6 cells/ml in KRPD containing 0.1% Human Heat Inactivated Platelet-Poor Plasma, 1 mM PMSF, 10, μg/ml leupeptin and 10 μg/ml aprotinin. About 25×10^6 PMN were preincubated for 30 minutes at 37° C., then stimulated with 100 ng/ml LPS for varying time intervals and reactions terminated by a 20 second centrifugation at 15,000 rpm. Cell pellets were lysed with 500 μl cold RIPA (50 mM Tris pH=7.2, 150 mM NaCl, 1.1% SDS, 0.1% sodium deoxycholate, 1% Triton-X-100, 10 mM sodium pyrophosphate, 25 mM M glycerophosphate, 1 mM sodium orthovanadate and 2.1 μg/ml aprotinin), and centrifuged at 15,000 for 10 minutes at 4° C. Triton soluble lysates were initial precleared with Protein A Sepharose for 30 minutes at 4° C., followed by Protein A Sepharose immunoprecipitation with 5 μl/sample polyclonal antibodies specific for p38 and 15 μl of bead suspension, for 120 minutes at 4° C. Beads were washed once in RIPA and twice in PAN (10 mM Pipes, 100 mM NaCl, pH=7.0, and 21 μg/ml aprotinin). […] Reactions were terminated with 2×Laemelli buffer and after boiling, proteins were separated by SDS-PAGE, with quantification of activity by autoradiography and phosphorimaging, and qualitative analysis of enzyme presence and phosphorylation by Western Blotting.

| Molecule | kinase activity (32P incorporation into EGFR662-681 peptide) [1] | ERK2 mobility shift (bands reactive with anti-ERK2 antibody) [2] | p38 MAP kinase activation [3] |
| --- | --- | --- | --- |
| CCCCCCCCCCCCCC(=O)O[C@@H]1[C@@H](C)[C@@]2(O)[C@@H](C=C(CO)C[C@]3(O)C(=O)C(C)=C[C@@H]23)[C@@H]2C(C)(C)[C@]12OC(C)=O [PMA, phorbol 12-myristate 13-acetate] | about 30,000 counts per minute | a second band with immunoreactivity to anti-ERK2 antibody appeared | – |
| lipopolysaccharide | – | – | activated |
